Measured values taken from patent US10684290B2, “LKB1 related diagnostics and treatments of cancer” (Dignity Health, priority 2014, dated 2020).

Tests used:
[1] = system: A427-KDLKB1 and A427-LKB1 cells; experiment: ATP measurement/cell viability (CellTiter-Glo), A427; format: cell-based, human; conditions: 48 h; 2DG 10 mM, Tm 1.25 μg/ml, BFA 30 ng/ml; p<0.005
Experimental: (§1) 500 H838 or A427 cells stably expressing either LKB1 or KDLKB1 were plated in 96 well plates. The following day, cells were dosed with the indicated treatments for 48 h. Cellular ATP levels were assessed using the CellTiter-Glo Luminescent Cell Viability Assay substrate (Promega) according to manufacturer's instructions. Luminescence was read using the DTX 880 Multimode Detector. Cellular ATP/cell viability was calculated relative to vehicle treated control.

[2] = Chronic dosing tolerability in vivo
[3] = system: LKB1 expressing and LKB1 null LA/NSCLC cell lines; experiment: Immunoblot of pAMPK and cleaved PARP in LKB1 expressing and LKB1 null cell lines; format: cell-based, human; conditions: 20 mM
Experimental: (§2) Cells were incubated on ice for 30 minutes with a lysis buffer containing 10 mM Tris-HCL, 150 mM NaCl, 0.1% SDS and 1% IGEPAL (Sigma). Immediately before use, a protease inhibitor cocktail (Sigma) and two phosphatase cocktails I and II (Sigma) were added to the lysis buffer. Lysates were transferred to tubes and insoluble material was pelleted by centrifugation. Nuclear protein fractions were isolated using a NE-PER protein extraction kit (ThermoFisher) according to manufacturer's instructions. Protein concentration was determined using the Bio-Rad DC protein kit. For immunoblotting, 50-100 ug of total protein lysates was separated by SDS-PAGE and transferred to nitrocellulose. Blots were blocked in 5% milk/Tris buffered saline/0.1% TWEEN® 20 (polyoxyethylenesorbitan monolaurate) (TBST) and primary antibodies were diluted in 5% Bovine Serum Albumin (Sigma)/TBST and incubated overnight at 4° C. Blots were developed with ECL plus (GE) and visualized on a Kodak Image station.
Cells were washed once with ice-cold PBS and incubated on ice for 30 min with a lysis buffer containing 10 mM Tris-HCl, 150 mM NaCl, 0.1% SDS and 1% IGEPAL (Sigma) to which a protease inhibitor cocktail (Sigma) and two phosphatase cocktails I and II (Sigma) were added immediately before use. Lysates were transferred to tubes and insoluble material was pelleted by centrifugation. […]

[4] = system: KRas/LKB1^wt and KRas/LKB1^null NSCLC tumors; experiment: Murine transgenic models of KRas and KRas/LKB1 null NSCLC, MRI tumor volume; format: in vivo, mice
Experimental: (§3) KRas^G12D/LKB1^lox/lox (KRas/LKB1^null) were generated by selective breeding of Lox-Stop-Lox KRas^G12D mice, purchased from Jackson Laboratories (Bar-Harbor, Me.), with LKB1^lox/lox mice obtained from Mouse Repository at the NCI and were inbred on a FVB background. KRas^G12D/LKB1^wt/wt (KRas/LKB1^wt) mice were generated by backcrossing Lox-Stop-Lox KRas^G12D onto a FVB background. Induction of lung tumors was performed. Briefly, six-week-old KRas/LKB1^null and KRas/LKB1^wt mice were transiently infected with 5×10^6 p.f.u. of Cre adenovirus (University of Iowa adenoviral core) via intranasal infection. At ˜6 weeks (KRas/LKB1^null) or ˜10 weeks (KRas/LKB1^wt) post-infection, mice underwent a baseline MRI scan to determine the baseline tumor burden. Mice with identified disease were randomized for daily treatment with either vehicle (PBS) or 500 mg/kg 2DG for three weeks, at which time mice received a follow-up MRI scan, sacrificed and the presence of disease confirmed by gross assessment and histology. For data generated in FIG. 2, KRas/LKB1^null and KRas/LKB1^wt mice with MRI positive tumors were treated either with 2DG (500 mg/kg) or vehicle (PBS) twice a day for two days before sacrifice and necropsy of tumor tissue. Mice received daily checks to monitor for clinical signs of disease (labored breathing, weight loss) and all procedures were under a protocol approved by the St. Joseph's Hospital and Medical Center IACUC committee.
All the scans were performed using a 7T small animal, 30-cm horizontal-bore magnet and BioSpec Advance III spectrometer (Bruker, Billerica, Mass.) with a 72 mm quadrature volume coil. Each animal was induced and maintained under isoflurane anesthesia, 3.0% and 1.5%, respectively, and delivered with 1.5 L/min of 100% oxygen. During MRI scans, the animal's respiration was continually monitored by a small animal monitoring and gating system (SA Instruments, Stoney Brook, N.Y.) via a pillow sensor positioned on top of the abdomen. Mice were placed on a heated animal bed system (Bruker, Billerica, Mass.) and the normal body temperature (36-37° C.) was maintained. For MR imaging, a Fast Low Angle Shot (FLASH) sequence (TR/TE=40 ms/2 ms; FOV=60 mm×60 mm; Average=2; matrix=256×256; Flip Angle=30°) was used to acquire initial scout images, which were used for locating the lung region for subsequent images. Then T1 weighted images were obtained with the Fast Imaging with Steady State Precession (FISP) sequence (TR/TE 5.262 ms/2.0 ms; 8 segments; FOV=30 mm×30 mm; matrix=256×256; slice thickness=1.0 mm; Flip angle, 20°; 22 averages; total acquisition time=17 min). […] Change in tumor volumes was determined by comparison of baseline tumor volume to tumor volume following three weeks of treatment.

[5] = system: H838-KDLKB1 and H838-LKB1 cells; experiment: Flow cytometry of ROS levels (CellROX staining); format: cell-based, human; conditions: CellROX FACS, 12 h; 2DG 10 mM, Tm 1.25 μg/ml, BFA 30 ng/ml; baseline difference 1.4-fold
Experimental: To analyze levels of reactive oxygen species (ROS), 1×10^6 H838-KDLKB1 and H838-LKB1 cells were plated and treated with the indicated drugs. Cells were then stained with 0.5 1M CellRox™ for 30 min at 37° C., collected by trypsinization and washed with PBS. Following fixation with 2% Paraformaldehyde/PBS for 20 min, cells were brought to a final volume of 500 ll in PBS. CellRox™ staining of ROS was assessed using the Accuri C6 Flow Cytometer (BD Biosciences, San Jose, Calif., USA) with the threshold set at 80,000. A total of 30,000 events were collected per sample and ROS staining intensity determined using FCS Express 4 Flow Cytometer software. Background events were gated out using unstained control. Histogram plots were overlaid and histogram subtraction was performed by subtracting the integral of the stained control from the treated sample.

[6] = system: H838-KDLKB1 and H838-LKB1 cells; experiment: Immunoblot of ER stress markers in H838-LKB1 and H838-KDLKB1 cells; format: cell-based, human; conditions: 12 h; 2DG 10 mM, Tm 1.25 ug/ml, BFA 30 ng/ml
Experimental: (§4) Cells were washed once with ice-cold PBS and incubated on ice for 30 min with a lysis buffer containing 10 mM Tris-HCl, 150 mM NaCl, 0.1% SDS and 1% IGEPAL (Sigma) to which a protease inhibitor cocktail (Sigma) and two phosphatase cocktails I and II (Sigma) were added immediately before use. Lysates were transferred to tubes and insoluble material was pelleted by centrifugation. For immunoblotting, 50-100 μg of total protein lysates were separated by SDS-PAGE and transferred to nitrocellulose. Blots were blocked in 5% milk/Tris buffered saline/0.1% TWEEN® 20 (polyoxyethylenesorbitan monolaurate) (TBST) and primary antibodies were diluted in 5% Bovine Serum Albumin (Sigma)/TBST and incubated overnight at 4° C. Blots were developed with ECL plus (GE) and visualized on a Kodak Image station.

[7] = system: BiP/GRP78 in KRas/LKB1^wt and KRas/LKB1^null NSCLC tumors; experiment: Immunohistochemical staining of BiP in NSCLC tumors of treated mice; format: in vivo; conditions: 500 mg/kg twice a day for two days
Experimental: as §3, with “Mice received daily checks to monitor for clinical signs of disease (labored breathing, weight loss) and all procedures were under a protocol approved by the St. Joseph's Hospital and Medical Center IACUC committee.” left out

[8] = system: H838-KDLKB1 and H838-LKB1 cells; experiment: ATP measurement/cell viability (CellTiter-Glo), H838; format: cell-based, human; conditions: 48 h; 2DG 10 mM, Tm 1.25 μg/ml, BFA 30 ng/ml; p<0.005
Experimental: as §1

[9] = system: H838-KDLKB1 cells; experiment: Clonogenic survival of H838-LKB1 and H838-KDLKB1 cells; format: cell-based, human; conditions: for Clonogenic cell survival of H838-KDLKB1 cells: 24 h, 2DG 10 mM, Tm 1.25 μg/ml, BFA 30 ng/ml
Experimental: (§5) Clonogenic survival assay were performed in 6 well dishes. Briefly, 200 of indicated cells were plated per well and allowed to attach overnight. Were indicated cells were pre-treated with 125 ng/ml of cyclohexamide (CHX) for one hour. Indicated drugs were diluted fresh into media and cells were treated for 24 h, at which time the drug containing media was removed and replaced with fresh media. After 14 days, cells were fixed in 10% Methanol/10% Acetic Acid and stained with 0.5% crystal violet. After washing in ddH2O, plates were allowed to dry and colonies of 50 cells or more were counted. The surviving fraction was calculated according to methods described by Franken et al. [Clonogenic assay of cells in vitro, NAT. PROT. 1 (5) (2006) 2315-2319].

[10] = system: H23-KDLKB1 and H23-LKB1 NSCLC cells; experiment: Immunoblot of BiP and CHOP in H23-LKB1 and H23-KDLKB1 cells; format: cell-based, human; conditions: 18 h; or bortezomib (40 nM)
Experimental: as §4

[11] = system: H23-KDLKB1 and H23-LKB1 cells; experiment: Clonogenic survival of H23-LKB1 and H23-KDLKB1 cells; format: cell-based, human; conditions: 24 h treatment, colonies after 14 days
Experimental: as §5, with “300-500” for “200 of indicated”, “Drugs” for “Were indicated cells were pre-treated with 125 ng/ml of cyclohexamide (CHX) for one hour. Indicated drugs”, “hours. Drug” for “h, at which time the drug”, “Franken,” for “Franken”, “al.” for “al. [Clonogenic assay of cells in vitro, NAT. PROT. 1 (5) (2006) 2315-2319].”
as §5

[12] = system: AMPK, H2009 LA cells; experiment: Immunoblot of BiP and CHOP in H2009 cells with AMPK inhibitor before 2DG; format: cell-based, human; design: dose or concentration left out as unconfirmed; conditions: H2009 cells treated with Compound C
Experimental: as §2

[13] = system: H23-LKB1 and H23-KDLKB1 cells; experiment: Caspase 3/7 activity assay; format: cell-based, human; conditions: 5 ug/ml, 24 hours
Experimental: H23-LKB1 and H23-KDLKB1 cell were plated as described previously and treated for 24 hours with tunicamycin (5 ug/ml) or vehicle (DMSO). Activity of Caspases 3 and 7 were determined using a Promega Caspase-Glo 3/7 kit and data analyzed as described previously.

[14] = KRas/LKB1^null mice, data not shown

Molecule | Cellular ATP in A427-KDLKB1 compared to A427 re-expressing LKB1 [1] | ROS levels in H838-KDLKB1, increase in intensity over H838-LKB1 [5] [fold] | Phosphorylated eIF2a in H838-KDLKB1 compared to H838-LKB1 cells [6] | Cellular ATP in H838-KDLKB1 compared to H838 re-expressing LKB1 [8] | Clonogenic cell survival of H838-KDLKB1 cells [9] | Clonogenic survival / cytotoxicity in H23-KDLKB1 compared to H23-LKB1 [11] | further results
O=CC[C@@H](O)[C@H](O)[C@H](O)CO [2DG, 2-deoxy-D-glucose] | reduced ATP | 2 | increased levels of phosphorylated eIF2a | reduced ATP | reduced cell survival | – | Tolerability of chronic dosing [2]: poorly tolerated; Phosphorylation of AMPK in LKB1 expressing H2009 cells (not in LKB1-deficient H23 cells) [3]: resulted in phosphorylation of AMPK; Cleavage of PARP (apoptosis) in LKB1 null LA cells (H2126, H838, H1395) ([3]; 12 and 18 hours): increased cleavage of poly(ADP-ribose) polymerase (PARP); Growth of NSCLC tumors (change in tumor volume by MRI) compared to vehicle ([4]; 500 mg/kg daily, three weeks, KRas/LKB1 wt and KRas/LKB1^null mice): reduced the growth of NSCLC tumors; Response of KRas/LKB1^null tumors compared to KRas/LKB1^wt tumors ([4]; 500 mg/kg daily, three weeks, p=0.0032): statistically greater response; Effects upon metastasis, gross assessment at necropsy [4, 14]: did not observe any effects upon metastasis; Survival of mice in longer term studies [4, 14]: no statistical impact upon survival; BiP protein levels in NSCLC tumor cells of KRas/LKB1^wt mice (IHC) [7]: significant increase in BiP protein levels
C[C@H]1CCC/C=C/[C@@H]2C[C@H](O)C[C@H]2[C@H](O)/C=C/C(=O)O1 [BFA, brefeldin A] | reduced ATP | 1.2 | increased levels of phosphorylated eIF2a | reduced ATP | reduced cell survival | – | –
C[C@@H]1C[C@@H]([C@H](O)CC2CC(=O)NC(=O)C2)C(=O)[C@@H](C)C1 [CHX, Cycloheximide] | – | – | – | – | – | – | Effect of added CHX on 2DG, BFA and Tm cytotoxicity in H838-KDLKB1 cells ([9]; 125 ng/ml CHX pre-treatment one hour, compared to 2DG, BFA or Tm alone, p<0.05): ameliorate 2DG, BFA and Tm cytotoxicity
CC(C)C[C@H](NC(=O)[C@H](Cc1ccccc1)NC(=O)c1cnccn1)B(O)O [bortezomib] | – | – | – | – | – | reduced the survival of H23-KDLKB1 cells in a dose dependent manner | BiP expression in H23-KDLKB1 compared to H23 cells with reconstituted LKB1 [10]: 9 fold decrease; CHOP expression in H23-KDLKB1 compared to H23 cells with reconstituted LKB1 [10]: 1.6 fold decrease
Cc1ccc(-c2cc(C(F)(F)F)nn2-c2ccc(S(N)(=O)=O)cc2)cc1 [celecoxib] | – | – | – | – | – | reduced the survival of H23-KDLKB1 cells in a dose dependent manner | BiP expression in H23-KDLKB1 compared to H23 cells with reconstituted LKB1 [10]: 1.6 fold decrease; CHOP expression in H23-KDLKB1 compared to H23 cells with reconstituted LKB1 [10]: 1.3 fold decrease
c1cc(-c2cnn3cc(-c4ccc(OCCN5CCCCC5)cc4)cnc23)ccn1 [compound C] | – | – | – | – | – | – | Expression of BiP and CHOP in response to 2DG [12]: prevented expression of both BiP and CHOP
tunicamycin [Tm] | reduced ATP | 1.67 | increased levels of phosphorylated eIF2a | reduced ATP | reduced cell survival | increased cytotoxicity | Tolerability of chronic dosing [2]: poorly tolerated; Activity of Caspases 3 and 7 (apoptosis) in H23-KDLKB1 versus H23-LKB1 [13]: increased levels of Caspase activity
